Source: patent US12516058B2, “Small-molecule compounds for controlling endosomal toll-like receptors and therapeutic agent for autoimmune diseases using same” (priority 2020, dated 2026)
“Also recorded” adds a separate entry of the source.

What was measured:
TLR1/2 = biological target: T1, TLR1/2 (Mus musculus, UniProt Q9EPQ1+Q9QUN7); experiment: TNF-α secretion ELISA after Pam3CSK4 in RAW 264.7 cells; type: cell-based
T1 construct: endogenous in cells; host or cells: RAW 264.7
Description: (§1) In order to determine the inhibitory activities of the test-ligand, RAW 264.7 cells were pretreated with each candidate compound for 1 hour, then treated with Pam3CSK4 (synthetic triacyl lipopeptide; TLR1/2, Invitrogen), FSL-1 (synthetic diacyl lipoprotein, TLR2/6, 100 ng/ml), lipopolysaccharide (LPS, TLR4, Sigma Aldrich), imiquimod (IMQ, TLR7, Invitrogen), and ODN2395 (type C CpG repeat motif DNA oligo(5′-[…]-3), TLR9, Bioneer) ligand for 4 hours, and treated with poly I:C (I:C repeat motif double-stranded RNA, TLR3, Invitrogen) and TL8-506 (TLR8, Invitrogen) showing delayed reactivity for 24 hours. After activation of TLR, the supernatant was diluted in an appropriate ratio so as to measure within the standard dose range, transferred to a pre-coated 96-well assay plate, and then treated with mouse TNF-alpha secretion level in accordance with the manufacturer's instructions using a mouse-TNF-alpha ELISA-kit (Invitrogen).
(§2) In order to determine the inhibitory activities of SK41, SK50, SK58 and SK64 on various TLR signaling pathways, RAW 264.7 cells were cultured along with each compound and then stimulated with different TLR agonists. The TLR agonists used herein were Pam3CSK4 (TLR1/2), FSL-1 (TLR2/6), LPS (TLR4) and FLA-ST (TLR5) as cell surface TLRs, and poly I:C (TLR3) and TL8-506 (TLR8) as endosomal TLRs.

TLR8 = biological target: T2, TLR8 (Mus musculus, UniProt P58682); experiment: TNF-α secretion ELISA after TLR8 agonist TL8-506 in RAW 264.7 cells; type: cell-based; settings: SK41, SK50, SK58, SK64
T2 construct: endogenous in cells; host or cells: RAW 264.7
T2 sequence (P58682 24-1032): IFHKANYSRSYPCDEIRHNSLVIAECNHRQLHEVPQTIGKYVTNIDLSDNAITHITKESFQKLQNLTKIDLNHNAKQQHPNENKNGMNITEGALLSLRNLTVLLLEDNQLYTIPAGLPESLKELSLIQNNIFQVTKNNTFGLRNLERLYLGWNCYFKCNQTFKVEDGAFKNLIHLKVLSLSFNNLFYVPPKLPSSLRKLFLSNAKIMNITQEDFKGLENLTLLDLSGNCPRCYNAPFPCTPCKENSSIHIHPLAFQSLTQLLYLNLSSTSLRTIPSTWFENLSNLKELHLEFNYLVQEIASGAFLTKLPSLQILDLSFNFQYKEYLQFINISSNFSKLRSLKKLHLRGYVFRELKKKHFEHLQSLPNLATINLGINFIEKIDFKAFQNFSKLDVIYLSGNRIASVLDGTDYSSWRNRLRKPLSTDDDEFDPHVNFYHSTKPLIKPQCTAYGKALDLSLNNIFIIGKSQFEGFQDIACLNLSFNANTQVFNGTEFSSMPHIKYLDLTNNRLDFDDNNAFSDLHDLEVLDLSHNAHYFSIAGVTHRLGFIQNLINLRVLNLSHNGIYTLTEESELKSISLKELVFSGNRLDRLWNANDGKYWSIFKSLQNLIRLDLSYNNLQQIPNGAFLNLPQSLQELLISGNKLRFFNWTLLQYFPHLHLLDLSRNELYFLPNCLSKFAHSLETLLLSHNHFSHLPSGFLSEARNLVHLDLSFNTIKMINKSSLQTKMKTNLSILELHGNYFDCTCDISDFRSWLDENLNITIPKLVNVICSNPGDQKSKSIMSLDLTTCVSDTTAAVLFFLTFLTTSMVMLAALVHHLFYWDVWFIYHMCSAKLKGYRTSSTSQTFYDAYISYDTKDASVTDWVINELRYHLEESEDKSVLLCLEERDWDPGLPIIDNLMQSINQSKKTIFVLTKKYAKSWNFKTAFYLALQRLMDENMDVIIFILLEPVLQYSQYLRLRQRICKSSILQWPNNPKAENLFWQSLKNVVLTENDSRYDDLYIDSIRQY
Description: as §1, §2

TLR2/6 = biological target: T3, TLR2/6 (Mus musculus, UniProt Q9EPW9+Q9QUN7); experiment: TNF-α secretion ELISA after FSL-1 in RAW 264.7 cells; type: cell-based
T3 construct: endogenous in cells; host or cells: RAW 264.7
Description: as §1, §2

[1] = tested on: MRL/lpr (MRL/Fas^lpr) mice; experiment: MRL/lpr systemic lupus erythematosus mouse model, oral administration; type: in vivo; settings: for change in body weight (index for long-term administration toxicity): daily oral, monitored at 3-day intervals; for antinuclear antibody (ANA) in blood plasma / C3 complement in blood plasma: end of experiment, ELISA, vs vehicle and HCQ 60 mg/Kg; for antinuclear antibody (ANA) in blood plasma: reaches normal as it decreases; for C3 complement in blood plasma: reaches normal as it increases; for visual (apparent) healing effect: oral once a day for 4 weeks, 15 mg/Kg for SK series and HCQ; for visual therapeutic effects: oral once a day, SK series 30 mg/Kg, HCQ 60 mg/Kg
Description: 14-weeks-old, 36-40 g, female MRL/lpr (or MRL/Fas^lpr) mice (purchased from the Jackson Laboratory, USA through Orient Bio) were used for the lupus treatment effect experiment and breeding was performed in accordance with the breeding and ethics regulations of the Laboratory Animal Research Center of the Ajou University Medical Center. Prior to the experiment, 4 to 5 animals were randomly assigned to each of a negative control group (Vehicle), a positive control group (HCQ), and an experimental compound group (SK41, SK50, SK58 and SK64) for blinding, and each of SK41, SK50, SK58, and SK64 compounds was completely dissolved in a vehicle consisting of ethanol (ethyl alcohol) 10%, polyethylene glycol 400 40% and sterile distilled water 50%, and then the solution was orally administered to experimental animals.
As for the administration method, only the same amount of vehicle was administered to the negative control group, 15-60 MPK (15-60 mg/Kg) of HCQ was administered daily to the positive control group, and SK41, SK50, SK58 and SK64 was administered daily in an amount of 15-30 MPK (15-30 mg/Kg) to the experimental compound group, […] experimental mice were 14 weeks old.
As for the sample collection method, the weight of the experimental mice was measured at 3-day intervals, and the mice were subjected to inhalational anesthesia and euthanasia using IFRAN liquid (Hana Pharmaceutical, Korea; ingredient name: Isoflurane) on the day of expiry of 40 days, and then blood, kidney, spleen and axillary lymph nodes and inguinal lymph nodes were collected therefrom.
Blood samples were collected from the heart of an anesthetized mouse, the serum was extracted therefrom using a serum separation tube and a centrifuge (4,000 rpm, 10 minutes, 4° C.), and blood concentrations of ANA (anti-nuclear Antibody, MyBioSourse, USA) as a lupus severity indicator molecule and C3 complement (MyBioSourse, USA), a comprehensive inflammatory indicator molecule, were measured through enzyme-linked immunosorbent assay (ELISA).
Organs were treated with an RNA stabilization agent (RNA Stabilization Reagent, Germany, QUIAGEN) immediately after extraction to preserve the condition and prepare specimens, the organs were imaged and weighed to determine whether or not the organs are damaged and to measure the degree of immune organ hypertrophy, and the sum of the weights of one pair of axillary lymph nodes and one pair of inguinal lymph nodes was recorded as the weight of the lymph nodes.

[2] = after administration for 40 days, 30 mg/Kg

T1 sequence (Q9EPQ1 26-795): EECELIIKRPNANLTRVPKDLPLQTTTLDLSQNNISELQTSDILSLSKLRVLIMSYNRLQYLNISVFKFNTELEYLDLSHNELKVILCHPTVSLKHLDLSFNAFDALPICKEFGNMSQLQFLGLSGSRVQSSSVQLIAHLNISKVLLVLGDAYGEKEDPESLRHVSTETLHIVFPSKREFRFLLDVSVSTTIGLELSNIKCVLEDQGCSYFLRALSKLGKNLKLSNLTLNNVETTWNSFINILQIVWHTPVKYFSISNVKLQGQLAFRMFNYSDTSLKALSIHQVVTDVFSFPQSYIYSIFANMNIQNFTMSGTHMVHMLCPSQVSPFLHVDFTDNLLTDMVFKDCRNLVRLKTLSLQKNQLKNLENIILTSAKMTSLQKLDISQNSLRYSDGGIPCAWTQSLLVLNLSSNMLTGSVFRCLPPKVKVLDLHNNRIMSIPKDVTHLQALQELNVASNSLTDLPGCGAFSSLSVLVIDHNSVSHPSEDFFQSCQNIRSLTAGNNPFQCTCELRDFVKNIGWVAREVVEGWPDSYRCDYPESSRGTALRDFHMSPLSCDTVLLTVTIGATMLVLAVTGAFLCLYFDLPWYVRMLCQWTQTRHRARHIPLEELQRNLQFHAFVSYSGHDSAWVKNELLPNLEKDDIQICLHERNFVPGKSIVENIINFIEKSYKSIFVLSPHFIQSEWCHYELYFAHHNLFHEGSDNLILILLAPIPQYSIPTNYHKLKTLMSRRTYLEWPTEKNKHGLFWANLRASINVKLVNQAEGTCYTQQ
T1 sequence (Q9QUN7 25-784): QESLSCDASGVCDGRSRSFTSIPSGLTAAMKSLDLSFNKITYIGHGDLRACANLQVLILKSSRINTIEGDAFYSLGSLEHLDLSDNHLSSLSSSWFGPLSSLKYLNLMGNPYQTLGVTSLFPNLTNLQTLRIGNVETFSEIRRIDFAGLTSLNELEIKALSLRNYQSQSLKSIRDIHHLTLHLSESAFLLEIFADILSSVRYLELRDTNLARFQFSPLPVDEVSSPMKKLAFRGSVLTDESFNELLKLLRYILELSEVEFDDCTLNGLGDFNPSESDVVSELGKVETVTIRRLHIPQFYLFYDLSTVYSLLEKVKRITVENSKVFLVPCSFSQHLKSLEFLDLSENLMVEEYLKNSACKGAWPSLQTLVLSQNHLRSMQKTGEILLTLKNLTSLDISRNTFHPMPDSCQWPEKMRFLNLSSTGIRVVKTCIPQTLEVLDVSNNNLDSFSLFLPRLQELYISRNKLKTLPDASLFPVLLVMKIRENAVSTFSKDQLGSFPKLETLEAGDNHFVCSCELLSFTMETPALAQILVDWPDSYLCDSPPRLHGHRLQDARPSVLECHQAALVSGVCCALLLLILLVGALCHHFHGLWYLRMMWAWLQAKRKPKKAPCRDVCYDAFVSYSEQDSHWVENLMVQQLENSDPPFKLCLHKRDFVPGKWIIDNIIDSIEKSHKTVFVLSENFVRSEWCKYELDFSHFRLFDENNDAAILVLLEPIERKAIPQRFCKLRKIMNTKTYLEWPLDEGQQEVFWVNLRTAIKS
T3 sequence (Q9QUN7 25-784): as above
T3 sequence (Q9EPW9 28-795): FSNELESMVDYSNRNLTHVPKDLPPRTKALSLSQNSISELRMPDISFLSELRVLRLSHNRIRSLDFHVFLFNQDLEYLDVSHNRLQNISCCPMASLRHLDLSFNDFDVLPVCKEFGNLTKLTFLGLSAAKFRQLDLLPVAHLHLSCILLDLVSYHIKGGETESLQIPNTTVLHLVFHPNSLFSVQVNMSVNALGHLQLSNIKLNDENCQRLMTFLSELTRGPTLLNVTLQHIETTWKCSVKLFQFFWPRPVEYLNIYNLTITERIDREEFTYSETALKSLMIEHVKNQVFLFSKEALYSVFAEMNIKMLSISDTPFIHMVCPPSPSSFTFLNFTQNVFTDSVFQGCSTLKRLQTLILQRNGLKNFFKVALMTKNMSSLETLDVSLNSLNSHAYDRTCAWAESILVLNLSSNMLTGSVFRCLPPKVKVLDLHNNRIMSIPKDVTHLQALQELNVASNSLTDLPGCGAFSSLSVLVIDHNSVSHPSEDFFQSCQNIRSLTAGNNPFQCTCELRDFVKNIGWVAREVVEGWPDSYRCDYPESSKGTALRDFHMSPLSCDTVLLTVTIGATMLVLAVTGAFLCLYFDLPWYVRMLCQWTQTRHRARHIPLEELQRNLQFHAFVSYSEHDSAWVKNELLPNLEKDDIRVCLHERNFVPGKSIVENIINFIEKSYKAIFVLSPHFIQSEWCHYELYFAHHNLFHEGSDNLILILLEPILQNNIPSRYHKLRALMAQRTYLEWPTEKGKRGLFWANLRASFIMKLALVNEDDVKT

Row | Compound | inhibitory activity against cell surface TLR1/2 (TNF-α secretion) (TLR1/2) | inhibitory activity against endosomal TLR8 (TNF-α secretion) (TLR8) | inhibitory activity against cell surface TLR2/6 (TNF-α secretion) (TLR2/6) | appearance of the lymph nodes [1, 2] | change in body weight (index for long-term administration toxicity) [1] | antinuclear antibody (ANA) in blood plasma [1] | C3 complement in blood plasma [1] | visual (apparent) healing effect [1] | visual therapeutic effects [1] | weight of the lymph node [1, 2] | weight of the spleen [1, 2]
1 | Cc1cc2c(N)c3c(nc2n1CCCN(C)C)CCCCCC3 [SK41, 1-(3-(dimethylamino)propyl)-2-methyl-5,6,7,8,9,10-hexahydro-1H-cycloocta[b]pyrrolo[3,2-e]pyridin-4-amine] | did not exhibit a specific inhibitory activity; also recorded: no inhibitory activities | strong inhibitory activity; also recorded: specific inhibitory activities | did not exhibit a specific inhibitory activity; also recorded: no inhibitory activities | small inguinal lymph node sizes | did not exhibit a change in body weight | significant results | significant results | superior visual (apparent) healing effect to that of HCQ | superior to HCQ |  | 
2 | COc1ccc2c(c1)c1c(N)c3c(nc1n2CCCN(C)C)CCCC3 [SK50, 6-(3-(dimethylamino)propyl)-9-methoxy-2,3,4,6-tetrahydro-1H-indolo[2,3-b]quinolin-11-amine] | did not exhibit a specific inhibitory activity; also recorded: no inhibitory activities | strong inhibitory activity; also recorded: specific inhibitory activities | did not exhibit a specific inhibitory activity; also recorded: no inhibitory activities |  | did not exhibit a change in body weight |  |  |  |  |  | 
3 | Cc1ccc2c(c1)c1c(N)c3c(nc1n2CCCN(C)C)CCCC3 [SK58, 6-(3-(dimethylamino)propyl)-9-methyl-2,3,4,6-tetrahydro-1H-indolo[2,3-b]quinolin-11-amine] | did not exhibit a specific inhibitory activity; also recorded: no inhibitory activities | strong inhibitory activity; also recorded: specific inhibitory activities | did not exhibit a specific inhibitory activity; also recorded: no inhibitory activities | relatively good | did not exhibit a change in body weight | significant results; also recorded: low antinuclear antibody | significant results; also recorded: high C3 complement | superior visual (apparent) healing effect to that of HCQ | superior to HCQ | relatively less swollen | relatively less swollen
4 | COC(=O)c1ccc2c(c1)c1c(N)c3c(nc1n2CCCN(C)C)CCCC3 [SK64, Methyl 11-amino-6-(3-(dimethylamino)propyl)-2,3,4,6-tetrahydro-1H-indolo[2,3-b]quinolin-9-carboxylate] | did not exhibit a specific inhibitory activity; also recorded: no inhibitory activities | strong inhibitory activity; also recorded: specific inhibitory activities | did not exhibit a specific inhibitory activity; also recorded: no inhibitory activities |  | did not exhibit a change in body weight |  |  |  | superior to HCQ |  | 
